Assay: xn = mol fraction of the nth substance listed
Details: Liquid, Vibrating tube method

COc1cc2c(cc1O)CC1c3c(cc(O)c(OC)c3-2)CCN1C (stereo not given) [boldine] + CCO
Details | mass density [kg/m3]
342.88 K, 1000 kPa, x1 = 0.0267 | 802.49
342.88 K, 2000 kPa, x1 = 0.0267 | 803.51
342.88 K, 3000 kPa, x1 = 0.0267 | 804.51
342.88 K, 4000 kPa, x1 = 0.0267 | 805.52
342.88 K, 5000 kPa, x1 = 0.0267 | 806.51
342.88 K, 6000 kPa, x1 = 0.0267 | 807.51
342.88 K, 7000 kPa, x1 = 0.0267 | 808.51
342.88 K, 8000 kPa, x1 = 0.0267 | 809.49
342.88 K, 9000 kPa, x1 = 0.0267 | 810.47
342.88 K, 10000 kPa, x1 = 0.0267 | 811.43
342.88 K, 11000 kPa, x1 = 0.0267 | 812.4
342.88 K, 12000 kPa, x1 = 0.0267 | 813.36
342.88 K, 13000 kPa, x1 = 0.0267 | 814.3
342.88 K, 14000 kPa, x1 = 0.0267 | 815.22
342.88 K, 15000 kPa, x1 = 0.0267 | 816.14
342.88 K, 16000 kPa, x1 = 0.0267 | 817.05
342.88 K, 17000 kPa, x1 = 0.0267 | 817.95
342.88 K, 18000 kPa, x1 = 0.0267 | 818.81
342.88 K, 19000 kPa, x1 = 0.0267 | 819.68
342.88 K, 20000 kPa, x1 = 0.0267 | 820.53
342.9 K, 1000 kPa, x1 = 0.0196 | 790.39
342.9 K, 2000 kPa, x1 = 0.0196 | 791.42
342.9 K, 3000 kPa, x1 = 0.0196 | 792.45
342.9 K, 4000 kPa, x1 = 0.0196 | 793.47
342.9 K, 5000 kPa, x1 = 0.0196 | 794.49
342.9 K, 6000 kPa, x1 = 0.0196 | 795.52
342.9 K, 7000 kPa, x1 = 0.0196 | 796.52
342.9 K, 8000 kPa, x1 = 0.0196 | 797.53
342.9 K, 9000 kPa, x1 = 0.0196 | 798.53
342.9 K, 10000 kPa, x1 = 0.0196 | 799.52
342.9 K, 11000 kPa, x1 = 0.0196 | 800.49
342.9 K, 12000 kPa, x1 = 0.0196 | 801.46
342.9 K, 13000 kPa, x1 = 0.0196 | 802.42
342.9 K, 14000 kPa, x1 = 0.0196 | 803.37
342.9 K, 15000 kPa, x1 = 0.0196 | 804.3
342.9 K, 16000 kPa, x1 = 0.0196 | 805.22
342.9 K, 17000 kPa, x1 = 0.0196 | 806.13
342.9 K, 18000 kPa, x1 = 0.0196 | 807.03
342.9 K, 19000 kPa, x1 = 0.0196 | 807.91
342.9 K, 20000 kPa, x1 = 0.0196 | 808.78
342.92 K, 1000 kPa, x1 = 0.0012 | 748.44
342.92 K, 1000 kPa, x1 = 0.0074 | 761.5
342.92 K, 2000 kPa, x1 = 0.0012 | 749.56
342.92 K, 2000 kPa, x1 = 0.0074 | 762.58
342.92 K, 3000 kPa, x1 = 0.0012 | 750.65
342.92 K, 3000 kPa, x1 = 0.0074 | 763.66
342.92 K, 4000 kPa, x1 = 0.0012 | 751.76
342.92 K, 4000 kPa, x1 = 0.0074 | 764.73
342.92 K, 5000 kPa, x1 = 0.0012 | 752.85
342.92 K, 5000 kPa, x1 = 0.0074 | 765.81
342.92 K, 6000 kPa, x1 = 0.0012 | 753.94
342.92 K, 6000 kPa, x1 = 0.0074 | 766.87
342.92 K, 7000 kPa, x1 = 0.0012 | 755.02
342.92 K, 7000 kPa, x1 = 0.0074 | 767.93
342.92 K, 8000 kPa, x1 = 0.0012 | 756.1
342.92 K, 8000 kPa, x1 = 0.0074 | 768.98
342.92 K, 9000 kPa, x1 = 0.0012 | 757.16
342.92 K, 9000 kPa, x1 = 0.0074 | 770.04
342.92 K, 10000 kPa, x1 = 0.0012 | 758.21
342.92 K, 10000 kPa, x1 = 0.0074 | 771.07
342.92 K, 11000 kPa, x1 = 0.0012 | 759.27
342.92 K, 11000 kPa, x1 = 0.0074 | 772.09
342.92 K, 12000 kPa, x1 = 0.0012 | 760.3
342.92 K, 12000 kPa, x1 = 0.0074 | 773.12
342.92 K, 13000 kPa, x1 = 0.0012 | 761.33
342.92 K, 13000 kPa, x1 = 0.0074 | 774.1
342.92 K, 14000 kPa, x1 = 0.0012 | 762.33
342.92 K, 14000 kPa, x1 = 0.0074 | 775.1
342.92 K, 15000 kPa, x1 = 0.0012 | 763.33
342.92 K, 15000 kPa, x1 = 0.0074 | 776.07
342.92 K, 16000 kPa, x1 = 0.0012 | 764.31
342.92 K, 16000 kPa, x1 = 0.0074 | 777.04
342.92 K, 17000 kPa, x1 = 0.0012 | 765.26
342.92 K, 17000 kPa, x1 = 0.0074 | 777.98
342.92 K, 18000 kPa, x1 = 0.0012 | 766.22

— the NIST ThermoML archive (doi:10.1016/j.jct.2012.03.003)
